Assays:
[1] = tested on: CCl4-induced liver fibrosis in male BALB/c mice; assay: Carbon Tetrachloride (CCl4)-induced liver fibrosis model; format: in vivo
Method: This study is performed to evaluate the effects of calpain compounds disclosed herein on a Carbon Tetrachloride (CCl4)-induced liver fibrosis in male BALB/c mice. Liver fibrosis is induced in mice by the administration of CCl4 twice weekly for four weeks. CCl4 administered animals are treated with compounds disclosed herein in a therapeutic treatment mode on day 14 post initiation of CCl4 injection and continued until study termination. Study is terminated 96 hours following the last CCl4 administration, i.e., on day 32 post CCl4 administration. Compounds described herein show an improvement in fibrosis score and no effect on liver enzymes, liver weight or body weight compared to vehicle.
Carbon tetrachloride (CCl4) is purchased from Sigma (cat #319961). To induce liver fibrosis, mice are administered CCl4 (1:1, CCl4:mineral oil) via intraperitoneal (ip) injection at a dose volume of 1 ml/kg body weight. On every CCl4 administration day animals are weighed prior to administration of CCl4 and the dose volume is adjusted as per body weight of individual animal. Animals are administered CCl4: mineral oil twice weekly i.e. every Monday and Thursday for four weeks, 2 hours post morning treatment. The final CCl4 injection is received on day 28 post first CCl4 injection.
Animals are bled via sub-mandibular route on day-4 prior to study initiation, and on day 13, post CCl4 administration, a day before the therapeutic treatment began. Plasma is prepared and stored at −20° C. until it is analyzed. Upon study termination day 32 post CCl4 administration, animals are bled via cardiac puncture. Serum is prepared and stored at −20° C. until shipped to contract company for liver enzyme panel analysis. […]
The procedures described above were followed using Compound 405 as a test compound administered at 30 mg/kg BID or 100 mg/kg BID. Body weights were measured prior to every CCl4 administration. […] Average liver weight of 2.24+/−0.06 g was recorded in animals treated with vehicle compared to no CCl4 administered control mice 1.45+/−0.03 g (p<0.0001).

[2] = tested on: CDAHFD rat model of non-alcoholic steatohepatitis (NASH); assay: Rat choline-deficient, amino acid-defined high fat diet (CDAHFD) model of NASH; format: in vivo, Male Wistar rats; settings: for mRNA expression of CTGF: MC BID 42.89±32.82; for mRNA expression of IL-6: MC BID 54.89±47.23; for mRNA expression of Colla1: MC BID 106.6±59.97; for SMA (Acta2) protein expression: MC QD 5.82±0.67
Excerpt: A rat choline-deficient, amino acid-defined high fat diet (CDAHFD) model of non-alcoholic steatohepatitis (NASH) reproduces key features of the human disease. This model was used to examine the anti-fibrotic effects of Compound 405 (shown in Table 1a) in the CDAHFD rat model.
Male Wistar rats (Charles River Laboratories) were randomly assigned to receive the following treatments: Group 1 (n=8) served as a healthy control and were fed normal chow for 12 weeks; Group 2 (n=8) served as a disease control and was fed a CDAHFD and received once daily (QD) oral gavage treatment with vehicle Methylcellulose (MC) beginning at week 5 post CDAHFD, Group 3 (n=8) served as a disease control and was fed a CDAHFD and received twice daily (BID) oral gavage treatment with vehicle Methylcellulose (MC) beginning at week 5 post CDAHFD, Group 4 (n=8) was fed a CDAHFD and received QD oral gavage treatment with Compound 405 (200 mg/kg) beginning at week 5 post CDAHFD, Group 5 (n=8) was fed a CDAHFD and received BID oral gavage treatment with Compound 405 (100 mg/kg) beginning at week 5 post CDAHFD, Group 6 (n=8) was fed a CDAHFD and received QD oral gavage treatment with Compound 405 (60 mg/kg) beginning at week 5 post CDAHFD, Group 7 (n=8) was fed a CDAHFD and received BID oral gavage treatment with Compound 405 (30 mg/kg) beginning at week 5 post CDAHFD. At the end of the study (12 weeks), liver tissue and serum was collected for further analysis. A part of the liver was used for histological analysis and the spare liver from each individual animal was snap frozen on liquid nitrogen and stored at −80° C. Serum was collected to measure ALT,

[3] = BID oral 100 mg/kg and 30 mg/kg, serum
[4] = QD oral 200 mg/kg and 60 mg/kg, serum

SMILES: Cc1nc(-c2ccccc2F)c(C(=O)NC(Cc2ccccc2)C(=O)C(N)=O)o1 (centres unmarked) [Compound 405]
- Fibrosis score (Picrosirius Red-stained liver sections, polarized light) ([1]; CCl4-treated mice, oral 30 mg/kg BID or 100 mg/kg BID from day 14, day 32): statistically significant reduction
- length and thickness of the collagen fibers (PSR-stained liver sections) ([1]; CCl4-treated mice, oral BID from day 14): decrease
- fibrosis ([1]; dosed therapeutically at 100 mg/kg, twice a day): significantly reduced
- mRNA expression of CTGF ([2]; 30 mg/kg BID, p<0.01): 3.55±1.35
- mRNA expression of IL-6 ([2]; 30 mg/kg BID, p<0.01): 2.80±1.35
- mRNA expression of SMA ([2]; 30 mg/kg BID, MC BID 73.65±37.51, p<0.01): 11.46±2.02
- mRNA expression of Colla1 ([2]; 30 mg/kg BID, p<0.01): 13.37±2.53
- Liver Weight (as a percent of total weight) ([2]; 30 mg/kg BID, p<0.05): 6.6 ± 0.3%
- fibrosis as measured by CPA ([2]; 60 mg/kg QD): did not significantly decrease
- fibrosis as measured by hydroxyproline ([2]; 60 mg/kg QD): did not significantly decrease
- SMA (Acta2) protein expression ([2]; 60 mg/kg QD, p<0.01): 2.40±1.16%
- collagen deposition ([2]; 100 mg/kg BID): reduced
- SMA (Acta2) protein expression in livers ([2]; 100 mg/kg BID, MC BID 7.08±1.36%, p<0.01): 2.01±1.14%
- mRNA expression of CTGF ([2]; 100 mg/kg BID, p<0.05): 3.84±2.24
- mRNA expression of IL-6 ([2]; 100 mg/kg BID, p<0.01): 15.81±9.01
- mRNA expression of Colla1 ([2]; 100 mg/kg BID, p<0.01): 35.76±33.84
- hydroxyproline ([2]; 100 mg/kg BID, MC BID 706.9±173.5 nmol/L, p<0.05): 458.2 ± 146 nmol/L
- Liver Weight (as a percent of total weight) ([2]; 100 mg/kg BID, p<0.05): 6.6 ± 0.8%
- SMA (Acta2) protein expression ([2]; 200 mg/kg QD, p<0.01): 1.7±0.58%
- collagen proportional area (CPA) ([2]; 200 mg/kg QD, MC QD 11.28±3.50%, liver at 12 weeks): 6.08±1.69%
- hydroxyproline ([2]; 200 mg/kg QD, MC QD 731.3±165.9 nmol/L, p<0.05): 495.1 ± 113.9 nmol/L
- pro-fibrotic or inflammatory gene expression (mRNA) ([2]; 200 mg/kg or 60 mg/kg QD): did not significantly decrease
- spleen weight (as a percent of total weight) ([2]; BID oral 100 mg/kg and 30 mg/kg): did not affect
- body weight ([2]; BID oral 100 mg/kg and 30 mg/kg, weeks 5-12): did not affect
- albumin levels [2, 3]: did not alter
- level of blood transaminases (U/L) including ALT, AST, and ALP vs MC BID [2, 3]: did not change
- Total bilirubin ([2]; BID study, serum): did not change significantly
- expression of Calpain1 ([2]; BID treatment): did not change
- expression of Calpain 2 ([2]; BID treatment): did not change
- liver fat content (histological analysis of steatosis) ([2]; BID treatment): did not change
- body weight relative to vehicle (methyl cellulose) control ([2]; QD oral 200 mg/kg and 60 mg/kg, weeks 5-12): did not alter
- albumin levels [2, 4]: did not change
- level of blood transaminases (ALT, AST, ALP) vs MC QD [2, 4]: did not alter
- Total bilirubin ([2]; QD study, serum): did not change significantly
- liver fat content (histological analysis of steatosis) ([2]; QD treatment): did not change

— patent US20220347173A1, “METHODS OF TREATING LIVER FIBROSIS USING CALPAIN INHIBITORS” (Blade Therapeutics, Inc., priority 2018, published 2022)
